Test results taken from US20020103228A1, “Composition and method for use of pyridinium derivatives in cosmetic and therapeutic applications” (TORRENT PHARMACEUTICALS LTD., priority 1999, published 2002).
Values joined by “and” are separate entries in the source; they are usually repeats but may differ in a detail not shown here. Equal values may be shown once.

What was measured:
[1] = Free radical scavenging activity on ABTS radical cation; format: biochemical
Description: This method measures the relative ability of free radical scavenging substances to scavenge the ABTS^.+ i.e. 2,2-Azino-bis-(3-ethyl benzo thiazoline-6-sulfonate) radical cation as compared to a standard amount of standard or free radical scavengers antioxidants. Incubation of ABTS with Peroxidase (metmyoglobin) and hydrogen peroxide results in the production of radical cation ABTS^.+. This species is blue-green in colour and can be detected at 730 nm. Antioxidants or free radical scavengers in the added sample that causes suppression of the color to a degree that is proportional to their concentration.
Preparation of Buffer Solutions
A. Phosphate Citrate Buffer (pH 5.0). 48.5 ml of 0.1M citric acid with sufficient 0.2M disodium hydrogen phosphate to produce 100 ml.
B. Phosphate Buffer Saline (PBS): Dissolve 40.0 g of NaCl, 1.0 g of KCl, 1.0 g of KH2PO4 and 3.05 g of Na2HPO4 in 1 liter milli-Q water. Dilute 200 ml of above solution to 1 liter with milli-Q water (pH 7.4-7.6).
C. 3 μM stock solution of Peroxidase was prepared in phosphate buffer saline pH 7.4(PBS).
D. 1.08 mM stock solution of Hydrogen peroxide was prepared in phosphate buffer saline pH 7.4 (PBS).
Preparation of ABTS Stock Solution
1 tablet (10 mg) was dissolved in phosphate citrate buffer (pH 5.0).
Preparation of ABTS Working Solution
5.0 ml of ABTS stock solution was diluted with PBS to 20 ml.
Preparation of Horse Radish Peroxidase Stock Solution
320 μg of the enzyme was dissolved in 2.5 ml of PBS.
Preparation of Hydrogen Peroxide (1.08 mM) Solution
12 μl of Hydrogen Peroxide (30% w/v) was diluted to 100 ml with PBS. […]
Preparation of ABTS Radical Stock Solution
To 18 ml of ABTS stock solution, 100 μl of Horseradish Peroxidase stock solution was added.
As soon as 1.5 ml of hydrogen peroxide solution was added to the above solution, blue-green colour of the ABTS radicals appeared. This solution was incubated at 30° C. for 30 min.
Preparation of Control Solution
980 μl of ABTS radical stock solution was added to an eppendorf tube. To it was added 100 μl of various PBS solution.
Preparation of test Solution
980 μl of ABTS radical stock solutions were added to different eppendorf tubes. To it were added 100 μl of various concentrations of drug solution.
Measurement of Absorbance (O.D)
The absorbance of control and test samples was recorded immediately at 730 nm taking PBS as blank.
Calculation: The percent antioxidant activity was calculated according to the formula. % Antioxidant activity=[O.D of test sample/O.D of control*100]−100.

AGE-BSA = molecular target: T1, AGE-BSA (Bos taurus, UniProt P02769); assay: In-vitro AGE breaking activity by ELISA; format: biochemical, Bovine; conditions: 37° C., 24 hours
T1 construct: Bovine serum albumin (fraction V) (BSA); from tissue; host or cells: bovine serum (fraction V); glycated in house with 1.6 M glucose at 37 °C for 16 weeks
Description: AGE breaking activity has been confirmed by the screening procedure as mentioned below:
Methods of experiment: Elisa (Enzyme Linked Immunosorbent Assay)
160 mg/ml of protein, bovine serum albumin, BSA and 1.6M glucose sugar were dissolved in phosphate buffered saline, PBS. Sodium azide was added at 0.02% concentration as a preservative. The solution was filtered asceptically through a […] filter and kept for aging at 37° C. for 16 weeks. After 16 weeks the solution was dialyzed against PBS, aliquoted and stored at −20° C.
To determine the AGE breaking activity, 10 μg/ml of the 16 weeks AGE-BSA was incubated with different concentrations of the test compounds at 37° C. for 24 hours and AGE breaking activity of the test compounds by ELISA was determined.
ELISA was performed as follows
1. Different concentrations of 16 weeks AGE-BSA were coated on a microtiter plate as standard. Each concentration is coated in triplicates.
2. The test samples were coated on microtiter plate at a concentration of 5 ng to 20 ng per well in triplicates
3. The plate was incubated at 37° C. for one hour.
4. After incubation the plate was washed with PBST (PBS with 0.05% Tween 20).
5. Blocking with 5% skimmed milk in PBS at 37° C. for one hour was done.
6. The plate was washed with PBST.
7. Primary antibody against AGE-BSA was added and the plate is incubated at 37° C. for one hour.
8. The plate was washed with PBST
9. Secondary antibody anti rabbit HRPO (Horse-Radish Per Oxidase) conjugate was added and the plate is incubated at 37° C. for one hour.
10. The plate was washed with PBST.
11. Colour development with OPD (orthophenylenediamine dihydrochloride) and hydrogen peroxide was done.
12. OD (optical density) at (450 nm reading-620 nm reading) was measured after incubation at 37° C. for 15 minutes with Microplate ELISA Reader
The breaker activity of the compounds were determined by the following formula: [formula]
OD450-620Control=Absorbance of 20 ng AGE-BSA after incubation at 37° C. for 24 hours without test compound
OD450-620Test=Absorbance of 20 ng AGE-BSA after incubation at 37° C. for 24 hours with required concentration of test compound
Using specific examples, the % AGE breaking activity was calculated and recorded in Table 2.

T1 sequence (P02769 25-607): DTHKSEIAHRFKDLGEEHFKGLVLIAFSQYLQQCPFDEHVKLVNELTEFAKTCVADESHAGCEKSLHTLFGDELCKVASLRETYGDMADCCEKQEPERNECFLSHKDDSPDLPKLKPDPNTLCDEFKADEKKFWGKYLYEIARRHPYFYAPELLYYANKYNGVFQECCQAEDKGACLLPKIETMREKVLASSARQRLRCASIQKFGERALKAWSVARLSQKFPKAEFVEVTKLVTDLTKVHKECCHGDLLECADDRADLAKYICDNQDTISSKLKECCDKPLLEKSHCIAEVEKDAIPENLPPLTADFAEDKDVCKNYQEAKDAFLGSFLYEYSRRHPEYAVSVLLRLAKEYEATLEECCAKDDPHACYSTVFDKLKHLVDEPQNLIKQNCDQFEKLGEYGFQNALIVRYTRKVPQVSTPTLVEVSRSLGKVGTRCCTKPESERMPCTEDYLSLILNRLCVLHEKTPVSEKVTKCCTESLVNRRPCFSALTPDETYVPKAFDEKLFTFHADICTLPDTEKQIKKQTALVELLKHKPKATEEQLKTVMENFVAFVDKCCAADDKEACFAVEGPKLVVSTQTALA

| Structure (SMILES) | Relative Free Radical Scavenging Activity (%) on ABTS ([1]; 11.5 μM) | Relative Free Radical Scavenging Activity (%) on ABTS ([1]; 23.0 μM) | Relative Free Radical Scavenging Activity (%) on ABTS ([1]; 46.0 μM) | Relative Free Radical Scavenging Activity (%) on ABTS ([1]; 92.5 μM) | % Breakage (AGE-BSA; 10 mM test compound) | Relative Free Radical Scavenging Activity (%) on ABTS ([1]; 925 μM) | % Breakage (AGE-BSA; 25 mM test compound) | % Breakage (AGE-BSA; 1 mM test compound) | Relative Free Radical Scavenging Activity (%) on ABTS ([1]; 11.5 μM, listed as Compound No. 64, 11.5 µM) | Relative Free Radical Scavenging Activity (%) on ABTS ([1]; 23.0 μM, listed as Compound No. 64, 23 µM) | Relative Free Radical Scavenging Activity (%) on ABTS ([1]; 46.0 μM, listed as Compound No. 64, 46 µM) | Relative Free Radical Scavenging Activity (%) on ABTS ([1]; 92.5 μM, listed as Compound No. 64, 92.5 µM) | % Breakage (AGE-BSA; 5 mM test compound) |
| --- | --- | --- | --- | --- | --- | --- | --- | --- | --- | --- | --- | --- | --- |
| CCOC(=O)NNC(=O)c1ccc[n+](CC(=O)c2cccs2)c1.[Br-] [Compound 54, 1-(2-thien-2′-yl-2-oxoethyl)-3-(ethoxycarbonyl hydrazinocarbonyl)pyridinium bromide] | 5.22% | 15.45% | 46.82% | 77.07% | 33.43% |  |  |  |  |  |  |  |  |
| CC(C)S(=O)(=O)NNC(=O)c1ccc[n+](CC(=O)c2cccs2)c1.[Br-] [Compound 50, 1-(2-thien-2′-yl-2-oxoethyl)-3-(isopropylsulfonyl hydrazinocarbonyl)pyridinium bromide] | 3.30% | 23.06% | 54.95% | 89.31% | 31.45% |  |  |  |  |  |  |  |  |
| COCCOC(=O)c1ccc[n+](CC(=O)c2ccc(Cl)cc2Cl)c1.[Br-] [Compound 22, 1-(2-(2′,4′-dichlorophenyl)-2-oxoethyl)-3-(2(methoxy)ethyloxycarbonyl)pyridinium bromide] | 27.9% | 50.9% | 69.3% | 79.7% | 13% | 100% | 41% |  |  |  |  |  |  |
| CS(=O)(=O)NNC(=O)c1ccc[n+](CC(=O)N2CCC(Cc3ccccc3)CC2)c1.[Cl-] [Compound 51, 1-(2-(4-benzylpiperidin-1-yl)-2-oxoethyl)-3-(methanesulfonyl hydrazinocarbonyl)pyridinium chloride] | 0.00% | 21.64% | 52.82% | 83.94% | 20.94% |  |  |  |  |  |  |  |  |
| CS(=O)(=O)NNC(=O)c1ccc[n+](CC(=O)c2ccc(Cl)s2)c1.[Br-] [Compound 55, 1-(2-(5-chlorothien-2-yl)-2-oxoethyl)-3-(methanesulfonyl hydrazinocarbonyl)pyridinium bromide] | 46.47% | 84.97% | 99.50% | 99.93% | 40.85% |  |  |  |  |  |  |  |  |
| CCCCOC(=O)c1ccc[n+](CC(=O)Nc2ccccc2)c1.[Cl-] [Compound 93, 1-(2-Phenylamino-2-oxoethyl)-3-(n-butyloxycarbonyl)pyridinium chloride] | 8.5% | 8.6% | 9.6% | 11.4% | 57% | 25.0% |  |  |  |  |  |  |  |
| CS(=O)(=O)NNC(=O)c1ccc[n+](CC(=O)c2cccs2)c1.[Cl-] [Compound 45, 1-(2-thien-2′-yl-2-oxoethyl)-3-(methanesulfonyl hydrazinocarbonyl)pyridinium chloride] | 53.9% | 56.2% | 78.7% | 99.8% | 17.53% | 100% |  |  |  |  |  |  |  |
| Cc1ccc(C(=O)C[n+]2cccc(C(=O)NNS(C)(=O)=O)c2)s1.[Cl-] [Compound 63, 1-(2-(5-methylthien-2-yl)-2-oxoethyl)-3-(methanesulfonyl hydrazinocarbonyl)pyridinium chloride] | 10.75% | 47.20% | 88.64% | 99.18% | 25.17% |  |  |  |  |  |  |  |  |
| CS(=O)(=O)NNC(=O)c1ccc[n+](CC(=O)c2ccc([N+](=O)[O-])s2)c1.[Cl-] [Compound 67] | 13.11% | 50.70% | 97.46% | 99.43% |  |  |  | 42.01% |  |  |  |  |  |
| CS(=O)(=O)NNC(=O)c1ccc[n+](CC(=O)c2cc([N+](=O)[O-])cs2)c1.[Br-] [Compound 64, 1-(2-(4-nitrothien-2-yl)-2-oxoethyl)-3-(methanesulfonyl hydrazinocarbonyl)pyridinium bromide] |  |  |  |  | 60.94% | 100% |  |  | 41.8% and 26.01% | 55.7% and 57.39% | 72.2% and 99.30% | 99.0% and 99.62% |  |
| O=C(NCCO)c1ccc[n+](CC(=O)c2cccs2)c1.[Br-] [Compound 90, 1-(2-Thien-2′-yl-2-oxoethyl)-3-((2-hydroxyethyl)aminocarbonyl)pyridinium bromide] | 47.8% | 58.8% | 78.2% | 99.5% | 50% | 100% |  |  |  |  |  |  |  |
| CCOC(=O)C[n+]1cccc(C(=O)NNc2ccccn2)c1.[Br-] [Compound 4, 1-(2-ethoxy-2-oxoethyl)-3-(2-(2-pyridyl)hydrazinocarbonyl)pyridinium bromide] | 58.2% | 64.3% | 69.3% | 98.6% | 30% | 100% |  |  |  |  |  |  |  |
| COCCNC(=O)c1ccc[n+](CC(=O)c2ccc(Cl)cc2Cl)c1.[Br-] [Compound 38, 1-(2′,4′-dichlorophenyl-2-oxoethyl)-3-(2-methoxyethylaminocarbonyl)-pyridinium bromide] | 47.2% | 54.8% | 71.0% | 89.5% |  | 100% |  |  |  |  |  |  | 17.66% |
